Data: patent US20190374590A1, “USE OF CORDYCEPS MILITARIS EXTRACT FOR TREATMENT OF RENAL DISEASE” (Nan Pao Resins Chemical Co., Ltd., priority 2018, published 2019)

Columns and labels:
[1] = tested on: a-smooth muscle actin protein level in AB8/13 human podocytes; experiment: Western blotting of α-smooth muscle actin protein level in differentiated AB8/13 human podocytes; assay type: cell-based; conditions: FIG. 2; substance alone (without TGF-β1), compared to dimethyl sulfoxide; 6 days incubation
Protocol: (§1) Firstly, AB8/13 human podocytes were incubated in a 33[…] incubator containing 5% carbon dioxide until they grew to a confluence of 80%. The cells were transferred to a 37.5[…] incubator containing 5% carbon dioxide to be incubated for 14 days so that the cells were differentiated. After which, the differentiated cells were incubated with culture medium containing various substances for 6 days. Finally, total protein of the differentiated cells treated with various substances was extracted for Western blotting assay.
(§2) As stated in Diabetes, 2011 Jun; 60(6): 1779-1788, transforming growth factor-β1 (TGF-β1) is greatly expressed in the renal tissue of a diabetic nephropathy patient. This paper further has reported that transforming growth factor-β1 can dedifferentiate differentiated podocytes and induce the disappearance of pseudopods. As stated in Cell Tissue Res. 2012 Jan; 347(1): 141-54, transforming growth factor-β1 participates in renal fibrosis, renal parenchyma degeneration and loss of function associated with chronic kidney disease. For the above reasons, podocytes treated with transforming growth factor-β1 can be used as a cell culture model for renal disease.

[2] = tested on: nephrin protein level in AB8/13 human podocytes; experiment: Western blotting of nephrin protein level in differentiated AB8/13 human podocytes; assay type: cell-based; conditions: FIG. 1; substance alone, compared to dimethyl sulfoxide; 6 days incubation
Protocol: as §1, §2

transforming growth factor-β1
a-smooth muscle actin protein level [1]: upregulate | nephrin protein level [2]: downregulate
